As usually defined, the pIC50 is −log10 of the IC50, conventionally taken in molar units. Low values mean a large IC50, high ones a small IC50.

Consider nine compounds from US7816406B2, “Quinolone analogs” (Cylene Pharmaceuticals, Inc., priority 2004, dated 2010).

Common to all, as to assay type: cell-based
One test concerns MiaPaca. Briefly: MTS cell proliferation assay, MiaPaca. The following applies: Table 1C. On the procedure: MTS assays. Antiproliferative effects of anticancer drugs are tested by the CellTiter 96 AQueous assay (Promega, WI), which is a colorimetric assay for determining the number of viable cells. (See, e.g., Wang, L., et al., Methods Cell Sci (1996) 18:249-255). Generally, cells (2,000 to 5,000 cells/well) are seeded on 96 well flat bottom plates (Corning, NY) in 100 μl of culture medium without any anticancer drug on day 0, and the culture medium is exchanged for that contained anticancer drugs at various concentrations on day 1. After incubation for 3 days under normal growth conditions (on day 4), the monolayers are washed once in PBS, and the medium is switched to 100 μl of PBS in each of the 96 well plate. After mixing MTS and PMS at the ratio of 20:1, 20 μl of MTS/PMS solution is added to each of the 96 well plate and incubated for 4 hours in a humidified atmosphere of 5% CO2 at 37° C. The absorbance is read at 490 nm using FLUOstar Galaxy 96 well plate reader (BMG Labtechnologies, Germany).
In general terms: Formazan colour is commonly taken as a measure of viable cells.

A further test has as its system Hela. Briefly: TumorCell MeanTimeSurvival (Alamar Blue Stain), Hela. To be noted: Homo sapiens.
A further test has as its system PC3. Kind of test: TumorCell MeanTimeSurvival (Alamar Blue Stain), PC3. The following applies: Homo sapiens, PC-3. A general note: The colour change of resazurin is a common sign of viable cells or microbes.
In another test the test system is HCT-116. Briefly: TumorCell MeanTimeSurvival (Alamar Blue Stain), HCT-116. The following applies: Homo sapiens.
Setting [1] is: Homo sapiens, MIA PaCa-2, M CELL MiaPaca.

pIC50: −log10 of the molar value.

As for `O=C(NCCN1CCCC1)c1c(=O)c2c(N3CCCC3)ccnc2n2c1sc1ccccc12` [drawing 145], the negative logarithm of the IC50 (pIC50) with MiaPaca (setting [1]) was 5.64.

Compound `CC(=O)NC1CCN(c2ccnc3c2c(=O)c(C(=O)NCCN2CCCC2)c2sc4ccccc4n23)C1` (stereo not shown) [drawing 147] showed a pIC50 with MiaPaca (setting [1]) of 6.15. `O=C(NCCN1CCCC1)c1c(=O)c2cnc(N3CCCC3)nc2n2c1sc1ccc(Cl)cc12` [drawing 213] gave a negative logarithm of the IC50 (pIC50) with MiaPaca (M CELL MiaPaca) of 6.52. Turning to `O=C1CN(c2ccnc3c2c(=O)c(C(=O)NCCN2CCOCC2)c2sc4ccccc4n23)CCN1` [drawing 234], the pIC50 in the test with MiaPaca (setting [1]) was 5.18.

In the test with MiaPaca (setting [1]), `O=C(NCCN1CCCC1)c1c(=O)c2ccc(N3CCN(c4ncccn4)CC3)nc2n2c1sc1ccc(Cl)cc12` [drawing 286] had a pIC50 of 5.60.

Consider `CC(C)Nc1ncc2c(=O)c(C(=O)NCCN3CCCC3)c3sc4ccccc4n3c2n1` [drawing 330], for which, in the test with MiaPaca (setting [1]), the pIC50 was 6.96.

On to `CN1CCCC1CCNC(=O)c1c(=O)c2ccc(N3CCNCC3)nc2n2c1sc1ccccc12` (stereo not shown) [drawing 358], for which, in the test with MiaPaca (setting [1]), the pIC50 was 8.00. Take `CN1CCCC1CCNC(=O)c1c(=O)c2cc(F)c(SCCc3cnccn3)cc2n2c1sc1ccccc12` (stereo not shown) [drawing 471]: the pIC50 was 5.55 in the test on Hela, 5.57 in the test with PC3 and 5.96 in the test on HCT-116. For `O=C(NCCN1CCCC1)c1c(=O)c2cc(F)c(SCCc3cnccn3)cc2n2c1sc1ccccc12` [drawing 472], in that order: 5.57, 6.28 and 6.24.
